Test results from patent publication US12662491B2 (Redona Therapeutics, Inc., priority 2020, dated 2026).
pIC50: −log10 of the molar value.

Target: T1, Zcchc11 enzyme (Homo sapiens, UniProt Q5TAX3)
T1 construct: made in house; host or cells: HEK293 cells (Zcchc11); E. coli Rosetta II (LIN28A)
T1 sequence (Q5TAX3 212-1420): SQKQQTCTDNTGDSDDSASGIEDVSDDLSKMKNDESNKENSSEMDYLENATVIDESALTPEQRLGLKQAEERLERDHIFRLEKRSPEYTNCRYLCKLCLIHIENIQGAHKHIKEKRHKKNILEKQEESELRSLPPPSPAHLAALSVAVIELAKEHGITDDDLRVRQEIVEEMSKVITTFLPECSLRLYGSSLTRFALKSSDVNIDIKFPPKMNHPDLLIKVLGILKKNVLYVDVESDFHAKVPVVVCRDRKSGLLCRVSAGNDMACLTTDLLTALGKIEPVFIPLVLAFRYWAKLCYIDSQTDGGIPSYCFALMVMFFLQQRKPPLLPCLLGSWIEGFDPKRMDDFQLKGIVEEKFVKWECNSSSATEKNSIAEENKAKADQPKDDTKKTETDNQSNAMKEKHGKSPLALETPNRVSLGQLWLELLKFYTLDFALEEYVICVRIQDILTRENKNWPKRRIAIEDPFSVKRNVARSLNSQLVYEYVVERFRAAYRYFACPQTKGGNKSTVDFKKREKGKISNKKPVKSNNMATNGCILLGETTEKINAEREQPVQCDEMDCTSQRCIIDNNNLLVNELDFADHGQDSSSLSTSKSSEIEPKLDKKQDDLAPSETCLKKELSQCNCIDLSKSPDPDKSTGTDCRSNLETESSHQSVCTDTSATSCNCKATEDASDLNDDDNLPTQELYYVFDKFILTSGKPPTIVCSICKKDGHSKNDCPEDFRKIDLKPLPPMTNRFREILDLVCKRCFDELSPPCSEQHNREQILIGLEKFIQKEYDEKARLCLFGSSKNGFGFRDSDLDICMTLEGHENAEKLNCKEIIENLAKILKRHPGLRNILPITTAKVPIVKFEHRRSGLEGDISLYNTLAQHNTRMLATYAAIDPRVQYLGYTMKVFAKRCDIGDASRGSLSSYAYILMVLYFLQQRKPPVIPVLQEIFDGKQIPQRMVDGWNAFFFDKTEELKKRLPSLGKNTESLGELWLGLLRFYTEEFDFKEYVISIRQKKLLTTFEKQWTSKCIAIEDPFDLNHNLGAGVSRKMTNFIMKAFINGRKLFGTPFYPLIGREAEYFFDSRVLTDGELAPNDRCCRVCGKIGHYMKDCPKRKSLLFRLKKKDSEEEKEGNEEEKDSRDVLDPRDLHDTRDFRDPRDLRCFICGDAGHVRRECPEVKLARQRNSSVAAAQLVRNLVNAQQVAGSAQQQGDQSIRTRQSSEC
Assay: TUTase assay (Zcchc11 assay, Lin28a-dependent polyuridylation of pre-let-7)
Format: biochemical
Settings: Lin28a-dependent Zcchc11 (Z11) TUTase assay; read-out: Potency Lin28a-dep Z11 IC50
Outline: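 LIN28A (10 nM) in pH 7.3 HEPES/KCl/MgCl2/DTT buffer was mixed with serially diluted compound, then 0.2 nM truncated human Zcchc11 and 2 nM labeled pre-let-7 were added for 30 min at room temperature. UTP (5 uM) and quench probe (4 nM) then started the reaction. Linear early rates gave IC50 values.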

Structure (SMILES)	pIC50
Nc1ccc(-n2cc(C(=O)O)c(=O)c3cc(Br)c(N4CCC[C@@H]4COc4ncccc4Cl)cc32)cn1 [Example 509, 1-(6-aminopyridin-3-yl)-6-bromo-7-[(2R)-2-{[(3-chloropyridin-2-yl)oxy]methyl}pyrrolidin-1-yl]-4-oxo-1,4-dihydroquinoline-3-carboxylic acid]	≥ 6.00
CN(C)C1CN(c2ccc(-n3cc(C(=O)O)c(=O)c4cc(F)c(N5CCC[C@@H]5COc5ncccc5Cl)cc43)cn2)C1 [Example 510, (R)-7-(2-(((3-chloropyridin-2-yl)oxy)methyl)pyrrolidin-1-yl)-1-(6-(3-(dimethylamino)azetidin-1-yl)pyridin-3-yl)-6-fluoro-4-oxo-1,4-dihydroquinoline-3-carboxylic acid]	≥ 6.00
O=C(O)c1cn(-c2cnccn2)c2cc(N3CCC[C@@H]3COc3ncccc3Cl)c(Br)cc2c1=O [Example 511, (R)-6-bromo-7-(2-(((3-chloropyridin-2-yl)oxy)methyl)pyrrolidin-1-yl)-4-oxo-1-(pyrazin-2-yl)-1,4-dihydroquinoline-3-carboxylic acid]	≥ 6.00
COc1cc2c(=O)c(C(=O)O)cn(-c3cnccn3)c2cc1N1CCC[C@@H]1COc1ncccc1Cl [Example 512, (R)-7-(2-(((3-chloropyridin-2-yl)oxy)methyl)pyrrolidin-1-yl)-6-methoxy-4-oxo-1-(pyrazin-2-yl)-1,4-dihydroquinoline-3-carboxylic acid]	< 4.30
N#Cc1cc2c(=O)c(C(=O)O)cn(-c3ccc(N)nc3)c2cc1N1CCC[C@@H]1COc1ncccc1Cl [Example 513, (R)-1-(6-aminopyridin-3-yl)-7-(2-(((3-chloropyridin-2-yl)oxy)methyl)pyrrolidin-1-yl)-6-cyano-4-oxo-1,4-dihydroquinoline-3-carboxylic acid]	≥ 6.00
O=C(O)c1cn(-c2cnn3c2CNCC3)c2cc(N3CCC[C@@H]3COc3ncccc3Cl)c(Cl)cc2c1=O [Example 514, (R)-6-chloro-7-(2-(((3-chloropyridin-2-yl)oxy)methyl)pyrrolidin-1-yl)-4-oxo-1-(4,5,6,7-tetrahydropyrazolo [1,5-a]pyrazin-3-yl)-1,4-dihydroquinoline-3-carboxylic acid]	≥ 6.00
O=C(O)c1cn(-c2cc3n(n2)CCNC3)c2cc(N3CCC[C@@H]3COc3ncccc3Cl)c(Cl)cc2c1=O [Example 515, (R)-6-chloro-7-(2-(((3-chloropyridin-2-yl)oxy)methyl)pyrrolidin-1-yl)-4-oxo-1-(4,5,6,7-tetrahydropyrazolo [1,5-a]pyrazin-2-yl)-1,4-dihydroquinoline-3-carboxylic acid]	≥ 6.00
O=C(O)c1cn(-c2ccc(N3CCC3)nc2)c2cc(N3CCC[C@H]3COc3ncccc3Cl)c(Cl)cc2c1=O [Example 516, (S)-1-(6-(azetidin-1-yl)pyridin-3-yl)-6-chloro-7-(2-(((3-chloropyridin-2-yl)oxy)methyl)pyrrolidin-1-yl)-4-oxo-1,4-dihydroquinoline-3-carboxylic acid]	≥ 6.00
CN(C)C1CN(c2ccc(-n3cc(C(=O)O)c(=O)c4cc(Cl)c(N5CCC[C@H]5COc5ncccc5Cl)cc43)cn2)C1 [Example 517, (S)-6-chloro-7-(2-(((3-chloropyridin-2-yl)oxy)methyl)pyrrolidin-1-yl)-1-(6-(3-(dimethylamino)azetidin-1-yl)pyridin-3-yl)-4-oxo-1,4-dihydroquinoline-3-carboxylic acid]	≥ 6.00
Nc1ccc(-n2cc(C(=O)O)c(=O)c3cc(Cl)c(N4CCC[C@@H]4COc4ncccc4Cl)cc32)c(F)n1 [Example 518, (R)-1-(6-amino-2-fluoropyridin-3-yl)-6-chloro-7-(2-(((3-chloropyridin-2-yl)oxy)methyl)pyrrolidin-1-yl)-4-oxo-1,4-dihydroquinoline-3-carboxylic acid]	≥ 6.00
